The structures appear in SMILES notation. The source made the active and inactive calls.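 How the source made its calls: active means compound flagged as a likely artifact in this counterscreen, with IC50 of 10 µM or lower; inactive means IC50 above 10 µM.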

This test relates to HEK293 Gal4-VP16 luciferase reporter counterscreen, luminescence. The test can be described thus: VP16-driven transactivation reporter suppression potency – cell-based, luminescence, HEK293, counter-screen for COUP-TFII inhibitor project, dose response (AID 720547).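 Further: potency for lowering the luciferase signal driven by Gal4-VP16.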
`COc1ccc(Cl)cc1Nc1nc(-c2sc(NC(=O)C(C)(C)C)nc2C)cs1`: the IC50 was > 85.4 µM (inactive).
Under `COc1cc(N(C)C)ccc1C=c1c2ccccc2n2c1cc(-c1ccccc1)[n+]2C` stands 26.3 µM (inactive).
Turning to `Cc1cc(C)c(CN2CCN(C(=O)Cn3cnc4c(OCc5ccccc5)ncnc43)CC2)c(C)c1`, the IC50 is > 85.3 µM (inactive).
Next, `NC(=O)c1c(-c2ccc(Cl)cc2Cl)csc1NC(=O)Cc1ccccc1`: > 85.4 µM (inactive); `COc1ccc(C(=O)Nc2ccccc2C(=O)N/N=C/c2ccc(O)c(OC)c2)cc1`: > 28.5 µM (inactive).
Consider `C[n+]1c2n(c3ccccc31)N=C(c1ccccc1)CS2`, for which the IC50 is > 85.5 µM (inactive).
In the case of `Cc1cc(C(=O)NC2CCCc3c2cnn3-c2ccc(C)c(C)c2)n(C)n1` (configuration not stated), the IC50 is > 85.4 µM (inactive).
`COc1ccccc1-[n+]1c(C)cc(/C=C2\Sc3ccccc3N2C)cc1C`: the IC50 is 27.8 µM (inactive).
Under `CN(C)c1cc[n+](CC(=O)c2ccc(-c3ccccc3)cc2)cc1` stands > 85.4 µM (inactive); under `Cn1c2ccccc2c(=O)c2cc(C#CC3(O)CCCCC3)ccc21`, > 85.4 µM (inactive); under `CCN1/C(=C/c2ccc3cc(C)ccc3[n+]2CC)Sc2ccccc21`, 22 µM (inactive).
As to `COc1ccc(CCNc2ncnc3sc(C)cc23)cc1OC`, the IC50 is > 28.5 µM (inactive).
Under `Cc1cc2c(=Cc3ccc(N(C)C)cc3)c3ccccc3n2[n+]1C` stands 36.5 µM (inactive).
Next, `CCOc1ccc(-n2c(-c3ccccc3)c[n+]3c2CCCCC3)cc1`: > 85.4 µM (inactive); `COc1ccc(-c2ccc3oc(-c4ccc(OC)cc4)c(C#CCO)c3c2)cc1`: > 85.4 µM (inactive).
Under `CCC(O)C1CCN(C(=O)c2cc(COc3ccc4ncccc4c3)on2)CC1` (configuration not stated) stands > 85.4 µM (inactive); under `CCc1ccc(CN(C)C(=O)c2cc(COc3cccc4cnccc34)on2)cc1`, > 85.4 µM (inactive); under `COc1ccc(/C=N/OCC(=O)NC(c2ccccc2)c2ccccc2)cc1OC`, > 85.4 µM (inactive).
`CC1Cc2cc(-c3csc(NC(=O)Cc4cccs4)n3)ccc2N1S(C)(=O)=O` (configuration not stated): the IC50 is 30.5 µM (inactive).
As to `COc1ccc(-c2csc(NC(=O)C3CCN(c4ncnc5sc(C)c(C)c45)CC3)n2)cc1OC`, the IC50 was 25.7 µM (inactive).
In the case of `CCC(C)NC(=O)CCC(=O)OC1O[C@H]2OC3(C)CC[C@H]4[C@H](C)CCC(C1C)C24OO3` (some centres not stated), the IC50 was > 85.4 µM (inactive).
Next, `CC1Cc2cc(-c3csc(NC(=O)Cc4ccccc4)n3)ccc2N1S(C)(=O)=O` (configuration not stated): > 85.4 µM (inactive).
Under `COc1cc2c(cc1OC)C1C(=O)c3ccc4c(c3OC1CO2)CC(C(C)C)O4` (configuration not stated) stands > 28.5 µM (inactive); under `C[C@H]1C[C@@H](C)C(=O)[C@@H]([C@H](O)CC2CC(=O)NC(=O)C2)C1`, > 85.4 µM (inactive).
Next, `CCCc1ccc(C(=O)O/N=C(\N)c2ccccn2)cc1`: 36.7 µM (inactive); `COc1ccc(CCNC(=O)C(C)n2nc(C)c3c(C)n(-c4ccc(C)cc4)nc3c2=O)c(OC)c1` (configuration not stated): > 28.5 µM (inactive); `c1ccc2cc3[nH]c(CNc4nc(N5CCOCC5)nc5c4ncn5-c4ccsc4)nc3cc2c1`: > 85.3 µM (inactive).
As for `Fc1ccc(-n2nnnc2-c2cnc(-c3cccs3)nc2C(F)(F)F)cc1`, the IC50 is 33.4 µM (inactive).
Next, `CC(Nc1ncnc2ccccc12)c1ccccc1` (configuration not stated): > 85.5 µM (inactive); `COc1ccc(NC(=O)COc2ccc(N(C)S(=O)(=O)c3ccc(Cl)cc3)cc2)cc1OC`: > 85.4 µM (inactive).
Next, `Cc1nc2c(-c3ccc(Cl)cc3)cnn2c(N)c1-c1ccc(F)cc1`: > 85.4 µM (inactive); `CCOC(=O)N1CCC(Nc2ncnc3c2cnn3-c2ccc(C)cc2C)CC1`: > 85.4 µM (inactive).
Under `COc1ccc2c(c1)[nH]c1c(N3CCN(Cc4ccc5c(c4)OCO5)CC3)ncnc12` stands 39.6 µM (inactive); under `CCCCCCn1c(NCC)nc2c1c(=O)n(C)c(=O)n2C`, > 85.4 µM (inactive); under `CCN(CC)S(=O)(=O)c1ccc(/C=C/C(=O)Nc2ccc(Br)cc2F)cc1`, > 85.4 µM (inactive).
With `CC(C)CC(NC(=O)CCCNC(=O)CCC(=O)OC1O[C@H]2OC3(C)CC[C@H]4[C@H](C)CCC(C1C)C24OO3)C(=O)O` (some centres not stated), the IC50 was > 85.4 µM (inactive).
Under `C=CC[n+]1c(-c2ccc(Cl)cc2Cl)csc1Nc1c(C)n(C)n(-c2ccccc2)c1=O` stands > 85.4 µM (inactive); under `Cc1ccc(-c2cc3cccc[n+]3cc2-c2ccc(C)cc2)cc1`, > 28.5 µM (inactive); under `COc1ccc(-n2nnnc2C(c2cc3ccccc3o2)N2CCC(n3c(=O)[nH]c4ccccc43)CC2)cc1` (configuration not stated), 12.7 µM (inactive).
With `Oc1ccc(CCNc2ncnc3ccc(Cl)cc23)cc1`, the IC50 was > 85.4 µM (inactive).
Under `Cc1ccc(F)cc1NC(=O)Cc1nn(C)c(=O)c2ccccc12` stands > 85.4 µM (inactive).
Under `O=C(/C=C/c1ccc([N+](=O)[O-])cc1)c1ccccc(=O)c1O` stands 13.2 µM (inactive).
Next, `CCCCCCn1c2c(c(=N)c3c1CCC3)CCC2`: > 85.4 µM (inactive); `Cc1ccc(C(=O)NC2CCCc3c2cnn3-c2ccc(F)cc2F)cn1` (configuration not stated): > 85.4 µM (inactive); `Oc1ccc(-[n+]2c(-c3ccccc3)cc(-c3ccccc3)cc2-c2ccccc2)cc1`: 12.6 µM (inactive).
Consider `O=C(CSc1nnc(Cn2nnc3ccccc32)o1)N(Cc1ccc(Cl)cc1)c1ccccc1`, for which the IC50 was > 85.4 µM (inactive).
Under `COc1ccc(C(=O)C2CCN(c3ncnc4sccc34)CC2)cc1` stands > 28.4 µM (inactive); under `CCN=c1scc(-c2ccc3c(c2)NC(=O)CO3)n1N=C1CCCC1`, > 85.4 µM (inactive).
Next, `Cc1nn(C)c(C)c1/C=C/C(=O)c1ccc(Cl)cc1Cl`: > 85.4 µM (inactive); `CC(=O)c1cccc(NS(=O)(=O)c2ccc(-c3cnc(C4CC4)o3)cc2)c1`: > 85.4 µM (inactive); `Cc1c(Cl)cccc1NC(=O)N1CCCN(c2nc(-c3ccccc3)ns2)CC1`: > 85.4 µM (inactive).
Under `O=C1N(c2ccccc2)C[C@@H]2C[C@@H](c3cc4ccccc4o3)N3CCC[C@@]123` stands > 85.4 µM (inactive).
In the case of `CCOCCCNC(=S)N1CCN(c2nc(-c3ccc(F)cc3)cs2)CC1`, the IC50 is 45.1 µM (inactive).
Next, `CCN(CC)S(=O)(=O)c1cccc(NC(=O)COC(=O)c2[nH]c(C)c(C(C)=O)c2C)c1`: > 28.5 µM (inactive); `CCc1cc(-c2nnn(CCC3COCCO3)c2CC)ccc1-c1cn(Cc2ccc3ccccc3c2)nn1` (configuration not stated): > 85.4 µM (inactive); `CC[n+]1c(C=C2C=C(C)OC(C)=C2)sc2ccccc21`: > 85.4 µM (inactive).
Under `N#CC(C#N)=C(Nc1ccc(F)cc1)SCc1cccc(Br)c1` stands > 85.4 µM (inactive); under `COC(=O)c1ccc2nc(Nc3nc4ccc(F)cc4s3)sc2c1`, > 85.4 µM (inactive).
Next, `Cc1c(/C(O)=C2/C(=O)C(=O)N(CCN3CCOCC3)C2c2ccco2)cnn1-c1ccccc1` (configuration not stated): 21.3 µM (inactive); `Cc1nn(C)c(C)c1CN(C)S(=O)(=O)c1ccc2ccccc2c1`: > 85.4 µM (inactive); `O=c1c2ccccc2oc2cc(C#CC3(O)CCCCC3)ccc12`: 56.2 µM (inactive).
In the case of `Cc1cc(/C=C2\Sc3ccccc3N2C)cc(C)[n+]1CC1CCCO1` (configuration not stated), the IC50 was > 85.4 µM (inactive).
Next, `Cc1oc(-c2ccc(Cl)cc2)nc1CS(=O)CC(=O)NCCCN1CCN(Cc2ccccc2)CC1` (configuration not stated): > 28.5 µM (inactive).
Under `CCc1cc(C(=O)NC2CCCc3c2cnn3-c2cccc(C)c2C)n(C)n1` (configuration not stated) stands > 85.4 µM (inactive).
Turning to `CC1CC(C)(O)CC(C(O)CC2CC(=O)NC(=O)C2)C1=O` (configuration not stated), the IC50 was > 85.3 µM (inactive).
On to `CC(C)c1ccc(CN2CCN(C(=O)CSc3nnnn3C3CC3)CC2)cc1`, for which the IC50 is > 85.4 µM (inactive).
Next, `Cc1c(C)n(Cc2ccccc2)c2ncnc(Cl)c12`: > 85.4 µM (inactive).
Under `CC(C)(C)OC(=O)NCCCCCc1cn([C@@H](CO)C(=O)NCCCCCCCCCCC(=O)N2CCN(C(=O)OC(C)(C)C)CC2)nn1` stands 13.3 µM (inactive); under `Fc1ccc(CN2CCN(c3ncc(Cc4ccccc4)cn3)CC2)c(Cl)c1`, > 85.3 µM (inactive).
Next, `Cc1ccc(Cl)cc1S(=O)(=O)N1CCC(C(=O)NC2CCN(Cc3ccccc3)CC2)CC1`: > 85.4 µM (inactive); `NC(=O)c1nnn(Cc2cc(Cl)c(C(=O)c3ccc(Cl)cc3)c(Cl)c2)c1N`: > 85.4 µM (inactive).
As for `Cn1nccc1C(=O)NC1CCCc2c1cnn2-c1ccccc1F` (configuration not stated), the IC50 was > 85.4 µM (inactive).
Next, `Cn1nc(CC(=O)Nc2ccc3c(c2)OCCO3)c2ccccc2c1=O`: > 85.4 µM (inactive).
Under `NC(=S)NN=C1c2cc(OCCN3CCOCC3)ccc2-c2ccc(OCCN3CCOCC3)cc21` stands 12 µM (inactive); under `COc1ccc(CCNc2ncnc3c2oc2ccccc23)cc1OC`, 56.8 µM (inactive); under `C=CCC1(CC=C)CCCN1C(=O)c1cc(COc2ccc(-n3cncn3)cc2)on1`, > 85.4 µM (inactive).
Next, `O=C(CSc1nnnn1C1CC2CCC1C2)Nc1ccnc2ccccc12` (configuration not stated): > 85.4 µM (inactive); `Fc1ccc(NC(=S)N2CCCN(c3ccc(C(F)(F)F)cn3)CC2)c(F)c1`: > 85.4 µM (inactive).
Turning to `CCOC(=O)N1CCC(NC(=O)C2CCCN(Cc3nc(-c4ccc(CC)cc4)oc3C)C2)CC1` (configuration not stated), the IC50 was 80.1 µM (inactive).
Next, `Cn1nccc1C(=O)NC1CCCc2c1cnn2-c1ccc(C(C)(C)C)cc1` (configuration not stated): > 85.4 µM (inactive); `Cc1sc2ncnc(NCC3COc4ccccc4O3)c2c1C` (configuration not stated): > 85.4 µM (inactive); `N#CCSc1nnc(-c2sc3ccccc3c2Cl)o1`: 85.9 µM (inactive).

Broadly, the IC50 is the concentration that gives 50% inhibition.

Source of the values: PubChem BioAssay AID720547 (The Scripps Research Institute Molecular Screening Center, 2013).
